Test results: ChEMBL document CHEMBL3232827, “Synthesis of substituted pyrimidines as corticotropin releasing factor (CRF) receptor ligands” (Eur J Med Chem, 2014)

Molecular target: T1, Corticotropin-releasing factor receptor 1 (Homo sapiens) (UniProt P34998)
T1 sequence (whole entry): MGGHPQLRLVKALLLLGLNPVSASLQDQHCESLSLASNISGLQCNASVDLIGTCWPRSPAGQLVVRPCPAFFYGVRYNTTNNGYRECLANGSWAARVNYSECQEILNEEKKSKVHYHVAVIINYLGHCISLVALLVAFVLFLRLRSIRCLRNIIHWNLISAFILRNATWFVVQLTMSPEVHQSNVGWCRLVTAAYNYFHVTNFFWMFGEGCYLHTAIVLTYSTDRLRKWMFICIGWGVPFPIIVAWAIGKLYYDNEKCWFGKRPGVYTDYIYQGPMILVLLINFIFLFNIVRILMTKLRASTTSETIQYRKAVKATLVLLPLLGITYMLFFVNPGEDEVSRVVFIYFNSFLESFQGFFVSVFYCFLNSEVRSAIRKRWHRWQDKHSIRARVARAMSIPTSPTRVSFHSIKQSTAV
Experiment: (§1) Displacement of [125I]Tyr0sauvagine from human CRF1 receptor expressed in HEK293 cell membrane after 120 mins by gamma scintillation counting analysis
Format: cell membranes

**Q.** With CCSc1c(Nc2c(C)cc(C)cc2C)nc(C)nc1N(CCOC)CCOC as the compound, how does the inhibition read?
**A.** The inhibition was “Dose-dependent effect”.

**Q.** CCCN(CCC)c1nc(C)nc(Nc2c(C)cc(C)cc2C)c1SCC was tested. Which inhibition did it give?
**A.** The inhibition was “Dose-dependent effect”.

**Q.** With COCCN(CCOC)c1nc(C)nc(Nc2c(C)cc(C)cc2C)c1SC as the compound, how does the inhibition read?
**A.** Its inhibition is “Dose-dependent effect”.

**Q.** Which inhibition does the source give for CCCN(CC1CC1)c1nc(C)nc(Nc2c(C)cc(C)cc2C)c1SCC here?
**A.** Its inhibition is “Dose-dependent effect”.

Molecular target: T2, Corticotropin-releasing factor receptor 1 (Homo sapiens, UniProt P34998)
T2 sequence (P34998 whole entry): T1 sequence (whole entry)
Experiment: as §1
Format: cell membranes

**Q.** Which IC50 does the source give for CCCCN(CC)c1nc(C)nc2c1c(C)c(C)n2-c1c(C)cc(C)cc1C [ANTALARMIN] here?
**A.** The IC50 was 18.6 nM.

**Q.** With CCSc1c(Nc2c(C)cc(C)cc2C)nc(C)nc1N(CCOC)CCOC as the compound, how does the IC50 read?
**A.** Its IC50 is 589 nM.

**Q.** With CCCN(CCC)c1nc(C)nc(Nc2c(C)cc(C)cc2C)c1SCC as the compound, how does the IC50 read?
**A.** The IC50 was 537 nM.

**Q.** How did the IC50 turn out when COCCN(CCOC)c1nc(C)nc(Nc2c(C)cc(C)cc2C)c1SC was run?
**A.** The IC50 was 275 nM.

**Q.** With CCCN(CC1CC1)c1nc(C)nc(Nc2c(C)cc(C)cc2C)c1SCC as the compound, how does the IC50 read?
**A.** Its IC50 is 245 nM.

Molecular target: T1, Corticotropin-releasing factor receptor 1 (Homo sapiens)
Experiment: Displacement of [125I]Tyr0sauvagine from human CRF1 receptor expressed in HEK293 cell membrane at 500 nM after 120 mins by gamma scintillation counting analysis
Format: cell membranes

**Q.** How did the inhibition turn out when CCSc1c(Nc2c(C)cc(C)cc2C)ncnc1N(CCOC)CCOC was run?
**A.** The inhibition was less than 50%.

**Q.** For CCCN(CCC)c1ncnc(Nc2c(C)cc(C)cc2C)c1SCC, which inhibition is on record?
**A.** The inhibition was less than 50%.

**Q.** Which inhibition does the source give for CCSc1c(Nc2ccc(C(C)C)cc2Br)nc(C)nc1N(CC)CC here?
**A.** The inhibition was less than 50%.

**Q.** How did the inhibition turn out when CCSc1c(Nc2ccc(C(C)C)cc2Br)nc(C)nc1N(CCOC)CCOC was run?
**A.** The inhibition was less than 50%.

**Q.** For COCCN(CCOC)c1ncnc(Nc2c(C)cc(C)cc2C)c1SC, which inhibition is on record?
**A.** The inhibition was less than 50%.

**Q.** How did the inhibition turn out when CCSc1c(Nc2c(C)cc(C)cc2C)nc(C)nc1N(CC)CC was run?
**A.** The inhibition was less than 50%.

**Q.** For CCN(CC)c1nc(C)nc(Nc2c(C)cc(C)cc2C)c1SC, which inhibition is on record?
**A.** Its inhibition is less than 50%.

**Q.** Which inhibition does the source give for CCCCN(CC)c1nc(C)nc(Nc2ccc(C(C)C)cc2Br)c1SCC here?
**A.** Its inhibition is less than 50%.

**Q.** How did the inhibition turn out when CCCN(CCC)c1nc(C)nc(Nc2ccc(C(C)C)cc2Br)c1SCC was run?
**A.** The inhibition was less than 50%.

**Q.** How did the inhibition turn out when CCCN(CC1CC1)c1nc(C)nc(Nc2c(C)cc(C)cc2C)c1SC was run?
**A.** Its inhibition is less than 50%.

**Q.** CCCN(CCC)c1nc(C)nc(Nc2ccc(C(C)C)cc2Br)c1SC was tested. Which inhibition did it give?
**A.** The inhibition was less than 50%.

**Q.** CCCCN(CC)c1nc(C)nc(Nc2c(C)cc(C)cc2C)c1SCC was tested. Which inhibition did it give?
**A.** Its inhibition is less than 50%.

**Q.** How did the inhibition turn out when CCCN(CCC)c1nc(C)nc(Nc2c(C)cc(C)cc2C)c1SC was run?
**A.** Its inhibition is less than 50%.

**Q.** Which inhibition does the source give for CCSc1c(Nc2c(C)cc(C)cc2C)ncnc1N(CC)CC here?
**A.** The inhibition was less than 50%.

**Q.** Which inhibition does the source give for CCCN(CC1CC1)c1nc(C)nc(Nc2ccc(C(C)C)cc2Br)c1SC here?
**A.** The inhibition was less than 50%.

**Q.** With CCCCN(CC)c1nc(C)nc(Nc2ccc(C(C)C)cc2Br)c1SC as the compound, how does the inhibition read?
**A.** The inhibition was less than 50%.

**Q.** For CCCN(CC1CC1)c1ncnc(Nc2c(C)cc(C)cc2C)c1SC, which inhibition is on record?
**A.** Its inhibition is less than 50%.

**Q.** With CCCN(CCC)c1ncnc(Nc2c(C)cc(C)cc2C)c1SC as the compound, how does the inhibition read?
**A.** Its inhibition is less than 50%.

**Q.** CCCN(CC1CC1)c1nc(C)nc(Nc2ccc(C(C)C)cc2Br)c1SCC was tested. Which inhibition did it give?
**A.** Its inhibition is less than 50%.

**Q.** CCCCN(CC)c1nc(C)nc(Nc2c(C)cc(C)cc2C)c1SC was tested. Which inhibition did it give?
**A.** The inhibition was less than 50%.

**Q.** COCCN(CCOC)c1nc(C)nc(Nc2ccc(C(C)C)cc2Br)c1SC was tested. Which inhibition did it give?
**A.** Its inhibition is less than 50%.

**Q.** Which inhibition does the source give for CCCCN(CC)c1ncnc(Nc2c(C)cc(C)cc2C)c1SC here?
**A.** Its inhibition is less than 50%.

**Q.** With CCN(CC)c1nc(C)nc(Nc2ccc(C(C)C)cc2Br)c1SC as the compound, how does the inhibition read?
**A.** Its inhibition is less than 50%.

**Q.** For CCCCN(CC)c1ncnc(Nc2c(C)cc(C)cc2C)c1SCC, which inhibition is on record?
**A.** Its inhibition is less than 50%.
